{"source": "patent US20180185327A1", "about": "“FORMULATION COMPRISING PARTICLES AND A LIPASE INHIBITOR” (PERORA GMBH, priority 2015, published 2018)", "key": {"[1]": {"test": "High fat diet feeding experiments in rats (cream chow with orlistat, with or without polymer or lipid granulate)", "format": "in vivo, male wistar rats", "conditions": "Ex. 3.2: four rats, cream chow 50% fat with added orlistat 0.6 mg/g chow, seven days", "procedure": "Animals (male rats) were kept in cages on standard animal bedding (two animals per cage or individual housing) and were provided with ad libitum access to food and water. Animal food was provided as pellets in a pellet rack or as a cream or as granulate powder each filled in a container attached to the inside of the cage.\nBody weight was recorded at beginning and end of experiments. Food consumption was documented daily except for weekends. Experiments were performed according to German laws of animal protection.\nRodent chow was purchased from ssniff Spezialdiaten GmbH, Germany; poly(acrylic acid) (PAA, Carbopol® 971 P NF) was obtained from the Lubrizol Corporation, USA; and HPMC (AnyAddy®) was obtained from Harke Pharma, Germany. Orlistat (Hexal, Germany) was purchased in a local pharmacy. Hard fat/tripalmitin (Dynasan® 116), triglyceride (Witepsol® E85), glycerol monooleate (Imwitor®990), and Xanthan were obtained from NRC/Jungbunzlauer, Germany. Glycerol monolaurate (GML 90 food) was obtained from Mosselman, Belgium. Resistant dextrin (Nutriose® FB06) was obtained from Barentz, Germany or Barentz, Netherlands."}, "[2]": {"conditions": "after an oral dose; cited from earlier work"}, "[3]": {"conditions": "cited from earlier work"}}, "note": "Where two headings read alike, the source gives them in different places."}
{"compound": "CCCCCCCCCCC[C@@H](C[C@@H]1OC(=O)[C@H]1CCCCCC)OC(=O)[C@H](CC(C)C)NC=O", "note": "[orlistat]", "values": [{"measurement": "body weight lost (±SD)", "setting": "[1]", "value": "2.5±1.4", "unit": "%"}, {"measurement": "mean daily food intake", "setting": "[1]", "value": 23.6, "unit": "g"}, {"measurement": "amount absorbed systemically", "setting": "[2]", "value": "Only trace amounts"}, {"measurement": "dietary fat prevented from being absorbed", "setting": "[3]; standard over-the-counter dose of 60 mg", "value": "about 25%"}, {"measurement": "dietary fat prevented from being absorbed", "setting": "[3]; standard prescription dose of 120 mg three times daily before meals", "value": "approximately 30%"}]}
